Laboratory results as given in PMC9706920, “Aryloxypropanolamine targets amyloid aggregates and reverses Alzheimer-like phenotypes in Alzheimer mouse models” (Alzheimer's Research & Therapy, 2022).
Each block holds one compound with its values, some of them ahead of it.

Experiments:
[1] = test system: 5XFAD mice; experiment: 6E10 immunohistochemical staining of amyloid plaques in 5XFAD mice after oral administration; assay type: in vivo, mouse; conditions: 50 mg/kg/day via drinking water, 5 weeks, 4.5-month-old female 5XFAD mice, vs vehicle
Procedure: To test the in vivo efficacy of YIAD001 and YIAD002, female 5XFAD mice (n = 25) and female wildtype mice (n = 7) were assessed at the age of 4.5 months. YIAD compounds were dissolved in DMSO and diluted in drinking water to a final concentration of 50 mg/kg/day (5% DMSO, 5% Tween) for oral administration. The three compounds, YIAD001, YIAD002, and YIAD003, were freely administered via drinking water to 4.5-month-old 5XFAD mice (n = 6 for each group) for 5 weeks. As a control, 5% DMSO, 5% Tween in drinking water was provided ad libitum to littermate 5XFAD mice (n = 7) and wildtype mice (n = 7) for 5 weeks.
After the administration period, the mice were deeply anaesthetized with 4% avertin through intraperitoneal injection and transcardially perfused with 0.9% saline. Subsequently, the mice were sacrificed for brain excision. Each collected brain was divided through the mid-sagittal section; the hippocampal and cortical regions were dissected from one half and stored at −80°C for subsequent brain lysates, while the other half was immersed in 4% paraformaldehyde (pH 7.4) for 24 h and 30% sucrose for 48 h at 4°C and subsequently deep-froze at −80°C for immunohistochemistry.
Coronal hippocampal sections of 5XFAD mice brains (35 μm) were cut with a Cryostat (Leica, CM1860) and mounted onto glass slides. Antigen retrieval was performed by submerging slides in 1% SDS and unspecific binding was blocked through incubation in 20% horse serum in PBS for 1 h at RT. Aβ deposits were visualized through immunolabeling by anti-6E10 antibody (1:200 in PBS with 5% horse serum, Biolegend 803003) and detection by fluorescent secondary antibody (1:200 in PBS, IgG Alexa 488). Brain sections were additionally stained with Hoechst 33342. Fluorescent images of the brain sections were taken on a Leica DM2500 fluorescence microscope. Amyloid plaques were quantified using Image-J software (NIH).

[2] = target: T1, Aβ(1–42) (Homo sapiens, UniProt P05067); experiment: ThT fluorescence Aβ(1–42) aggregation inhibition assay; assay type: biochemical; conditions: for Inhibition of Aβ(1–42) fibrillation (ThT fluorescence): compounds at 0.5, 5, 50, 500 μM co-incubated with monomeric Aβ(1–42) 25 μM, 37°C, 3 days, concentration of the printed value not stated
T1 construct: Synthesized monomeric Aβ(1–42), […]; […]; IA; made in house; host or cells: chemical synthesis (Fmoc solid phase peptide synthesis)
T1 sequence (P05067 672-713 limits assumed): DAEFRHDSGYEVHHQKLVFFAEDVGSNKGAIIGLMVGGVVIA
Procedure: (§1) ThT fluorescence was used to assess the in vitro inhibition of Aβ(1–42) and disaggregation of Aβ(1–42), Aβ(1–40), Aβ(pE3-42), recombinant tau K18, and tau repeats R1, R2, R3, R4 by YIAD compounds. In house synthetic Aβ(1–42) was dissolved in DMSO (1 mM, 100% DMSO) and diluted to 20-fold in deionized water to make 50 μM Aβ(1–42) stocks (5% DMSO). YIAD compounds were first dissolved in DMSO (100 mM, 100% DMSO) and serially diluted with deionized water to make YIAD stocks with concentrations of 1, 10, 100, and 1000 μM (10% DMSO). For the Aβ(1–42) inhibition assay, monomeric Aβ(1–42) stocks and YIAD stocks were co-incubated at 37°C for 3 days. For Aβ(1–42) disaggregation assay, monomeric Aβ(1–42) stocks were preincubated at 37°C for three days to form Aβ(1–42) aggregates, and subsequently, YIAD stocks were added for an additional 3 days. For Aβ(1-40) disaggregation assays, Aβ(1–40) (50 μM, 5% DMSO) was preincubated at 37°C for 3 days to induce aggregation, and co-incubated with YIAD001 and YIAD002 for an additional 3 days. For Aβ(pE3-42) disaggregation assays, in house synthetic Aβ(pE3-42) (50 μM, 5% DMSO) was preincubated at 37°C for 1 day and co-incubated with YIAD002 for an additional 3 days. For tau K18 disaggregation assay, recombinant tau K18 fragments (35 μM) were dissolved in PBS with 0.1 mg/mL of heparin and 100 μM of DTT, then pre-aggregated at 37°C for 3 days. Then, YIAD stocks were added to aggregated K18 fragments for an additional 3 days. For tau repeat disaggregation assays, tau repeats (R1, R2, R3, R4) (35 μM) were dissolved in PBS with 0.1 mg/mL of heparin and 100 μM of DTT, then pre-aggregated at 37°C for 1 day. Then, YIAD002 was added to aggregated repeats for an additional 3 days. Prior to fluorescence intensity measurement, ThT solution (5 μM) was prepared by dissolving ThT, purchased from Sigma-Aldrich (MO, USA) in 50 mM glycine buffer (pH 8.5). To quantify the effect of inhibition and disaggregation, 25 μL of all samples and 75 μL of ThT solution were loaded into a half-area 96-well black plate in triplicate.

[3] = target: T2, Aβ(1–42) aggregates (Homo sapiens, UniProt P05067); experiment: ThT fluorescence Aβ(1–42) disaggregation assay; assay type: biochemical; conditions: for Decrease of fibrillar Aβ(1–42) aggregates (ThT fluorescence): Aβ(1–42) 25 μM pre-aggregated 37°C 3 days, compound added for additional 3 days, concentration of the printed value not stated; for EC50: pre-aggregated Aβ(1–42) 25 μM, 3 + 3 days, 37°C
T2 construct: made in house; host or cells: chemical synthesis (Fmoc solid phase peptide synthesis)
T2 sequence (P05067 672-713 limits assumed): as above
Procedure: as §1

[4] = BBB-PAMPA; assay type: in vitro ADME; conditions: PAMPA, pH 7.4
Procedure: Commercially available Double-Sink PAMPA (Pion® Double sink) assay was performed using a two compartment 96-well microtiter plate and protocols specified by the manufacturer. […] Stock solutions of controls and YIAD002 were dissolved in DMSO (10 mM) and subsequently diluted to 200-fold in pION buffer (pH 7.4) to 50 μM. The donor plate of the PAMPA sandwich was loaded with 50 μM solutions, and after wetting the artificial membrane with BBB lipid solution, the acceptor plate was loaded with acceptor sink buffer. Then, the acceptor plate was placed on the donor plate and incubated at 25°C for 4 h. Compound concentration in the reference, donor, and acceptor plates were measured on a UV plate.

- melting point: 169.3 to 169.9 °C
SMILES: COc1ccc(OCC(O)CN2CCCCC2)cc1.Cl (stereo not shown)

- melting point: 172.1 to 172.7 °C
SMILES: Cl.OC(COc1ccc(Br)cc1)CN1CCOCC1 (stereo not shown)

- melting point: 178.1 to 178.6 °C
SMILES: Cl.OC(COc1ccc(Br)cc1)CN1CCCCC1 (stereo not shown)

- melting point: 176.9 to 177.7 °C
SMILES: Cl.OC(COc1ccc(Br)cc1)CN1CCCC1 (stereo not shown)

- melting point: 197.9 to 198.3 °C
SMILES: CC(C)(C)c1ccc(OCC(O)CN2CCOCC2)cc1.Cl (stereo not shown)

SMILES: COc1ccc(OCC(O)CN2CCOCC2)cc1.Cl (stereo not shown) [YIAD003, 4-(2-Hydroxy-3-(4-methoxyphenoxy)propyl)morpholin-4-ium chloride]
- Number of 6E10-stained plaques [1]: did not cause any change
- Plaque area [1]: slight tendency of an increase
- melting point: 160.2 to 160.5 °C
- Activity in anti-Aβ screen ([2]; inhibitory interaction with Aβ(1–42) aggregation): inactive

SMILES: CC(C)(C)c1ccc(OCC(O)CN2CCCCC2)cc1.Cl (stereo not shown) [YIAD008, 1-(3-(4-(Tert-butyl)phenoxy)-2-hydroxypropyl)piperidin-1-ium chloride]
- Decrease of fibrillar Aβ(1–42) aggregates (ThT fluorescence) [3]: 59.89%
- EC50 [3]: 360 µM
- melting point: 201.7 to 202.2 °C
- Inhibition of Aβ(1–42) fibrillation (ThT fluorescence) [2]: 70.69%

SMILES: CC(C)(C)c1ccc(OCC(O)CN2CCCC2)cc1.Cl (stereo not shown) [YIAD010, 1-(3-(4-(Tert-butyl)phenoxy)-2-hydroxypropyl)pyrrolidin-1-ium chloride]
- Decrease of fibrillar Aβ(1–42) aggregates (ThT fluorescence) [3]: 83.56%
- EC50 [3]: 138 µM
- melting point: 139.9 to 140.4 °C
- Inhibition of Aβ(1–42) fibrillation (ThT fluorescence) [2]: 75.96%

- Papp at 4 h, 50 μM [4]: 50.9 ×10⁻⁶ cm/s
SMILES: CC(=O)[C@H]1CC[C@H]2[C@@H]3CCC4=CC(=O)CC[C@]4(C)[C@H]3CC[C@]12C [progesterone, reference compound]

- Effective permeability coefficient Pe ([4]; 4 h, 50 μM): 0 10^−6 cm/s
SMILES: CNC(=C[N+](=O)[O-])NCCSCc1ccc(CN(C)C)o1 [ranitidine, reference compound]
